Source: PMC4741438, “Targeting the SIN3A-PF1 interaction inhibits epithelial to mesenchymal transition and maintenance of a stem cell phenotype in triple negative breast cancer” (Oncotarget, 2015)
Peptide text beside a SMILES is read from it.

Tests used:
PAH2 domain of SIN3A = biological target: T1, PAH2 domain of SIN3A (Mus musculus, UniProt Q60520); test: Fluorescence anisotropy competition assay, FITC-labeled Mad1 peptide probe; conditions: 70 nM PAH2 domain, 10 nM probe, PBS pH 7.4, 0.01% BSA, 1 h, 25°C; read-out: IC50, competition for binding to FITC-labeled MAD probe
T1 construct: The PAH2 domain of mSin3A was overexpressed in the E. coli BL21 (DE3) codon plus RIL strain; His tag (inferred from Ni2+ chelating column); made in house; host or cells: E. coli BL21 (DE3) codon plus RIL
T1 sequence (Q60520 300-383 limits assumed): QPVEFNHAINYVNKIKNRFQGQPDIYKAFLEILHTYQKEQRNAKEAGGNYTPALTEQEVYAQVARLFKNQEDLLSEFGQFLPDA
Description: The PAH2 domain of mSin3A was overexpressed in the E. coli BL21 (DE3) codon plus RIL strain (Stratagene) by addition of 1 mM isopropyl-1-thio-D-galactopyranoside and incubation overnight at 15°C. Harvested cells were re-suspended in 50 mM sodium phosphate buffer, pH 7.4, supplemented with 500 mM sodium chloride, 5% glycerol, and 0.1% Igepal CA-630 and lysed using a microfluidizer (Micro-fluidics) at 20,000 psi. After clarification of the crude extract by high-speed centrifugation, the lysate was loaded onto a 5 ml HiTrap chelating column (GE Healthcare) charged with Ni2+. The column was washed and the protein was eluted with 30 mM HEPES pH 7.4, 250 mM sodium chloride, and 250 mM imidazole. The protein was next purified on a Superdex75 column (GE Healthcare) equilibrated with 20 mM Tris-HCl buffer, pH 8.0, and 150 mM sodium chloride. Fractions containing the pure protein were combined and concentrated with 3 kDa MWCO centrifugal filters (Amicon).
The binding affinity of pSID for SIN3A was assessed in a fluorescence anisotropy competition assay using a fluorescein isothiocyanate-labeled Mad1 peptide as an assay probe. […] Measurements were obtained after a 1 h incubation of the fluorescent ligand and the protein at 25°C with a Safire 2 microplate reader (Tecan). […]

[1] = test system: H3K4me3 at the CDH1 and ESR1 promoters; set-up: method as in PMID 20547842; conditions: SID peptide, longer time period; cited from earlier work
4T1 cells = test: Lung metastasis of 4T1 cells in Balb/c mice; assay type: in vivo, mouse
Description: 4T1 cells were treated for 14 days with water, Tat-Scr (2.5 μM) or Tat-SID (1 & 2.5 μM) and then inoculated orthotopically in the inguinal mammary gland of Balb/c mice (n = 5). […] Tumor volumes were calculated as ellipsoids (Dxd^2/2) by measuring the main diameter (D) and the smaller diameter (d) and plotted versus time (days). The experiment was stopped when tumors in the control group reached ∼500 mm^3, then, the mice were sacrificed, tumors were isolated for weight and lungs were isolated for metastatic foci analysis. Similar experiment was also performed using MMTV-Myc cells. In another set of experiments 4T1 cells stably transfected with Scr-shRNA or PF1-shRNA were inoculated in interscapular space of Balb/c mice (n = 10). […] Tumor-free survival was calculated from Kaplan-Meier curves, and statistical significance was determined using the log-rank test for survival and the t-test for tumor growth. Metastatic dissemination was evaluated by dissecting the lungs from sacrificed mice and inspecting the Bouin-fixed (Sigma) lung surface for lesions using a stereoscope (Nikon SMZ800 stereoscope X3 to X5). […] After 6 days, the number of colonies formed (each originating from a single tumor cell) were counted to evaluate the number of disseminated tumor cells (DTCs). To evaluate DTC proliferation, the number of cells per colony were counted using ImageJ software.

MDA-MB-231 cells [2] = test: FACS CD44/CD24 in MDA-MB-231; assay type: cell-based, human; conditions: 1 μM, 72 h; mean of three independent experiments; p = 0.01
Description: (§1) For aldehyde dehydrogenase assay, cells were dissociated with PBS-EDTA and tested for ALDH activity (2 × 10^5 cells/sample), using the Aldefluor assay (Aldegen) according to the manufacturer's instructions. For CD44 and CD24 antigens, cells were dissociated with Accutase, washed with PBS and incubated with PE-conjugated anti-CD24 and APC-conjugated anti-CD44 antibodies (BD Biosciences) for 40 minutes in ice. For quantification of NANOG, OCT4 and SOX2 dissociated cells were fixed with 1% paraformaldehyde (15 min at RT), permeabilized with 0.5% TritonX100 (10 min at RT) and incubated with 1:100 diluted antibodies against NANOG, OCT4 and SOX2 (Cell Signaling) for 1 h at room temperature. The cells were then washed and incubated with fluorophore-conjugated secondary antibodies Abcam). FACS analysis was carried out using a FACScanto flow cytometer, DIVA software program for acquisition (BD Biosciences) and FlowJo (Treestar.) software for analysis.

MDA-MB-231 cells [3] = test: Aldefluor ALDH1 activity in MDA-MB-231; assay type: cell-based, human; conditions: 1 μM, 72 h; mean of three independent experiments; p = 0.0395
Description: as §1

MDA-MB-231 cells [4] = test: 3D culture colony morphogenesis of MDA-MB-231; assay type: cell-based, human; conditions: 3D matrigel, 10 days
Description: MDA-MB-231 cells were cultured on 8 chambered wells (BD Biosciences) and fixed with 4% paraformaldehyde/PBS for 15 min at room temperature. For 3D cultures cells were seeded (3 × 10^3/well) in quadruplicate onto Matrigel (BD Biosciences) or Cultrex basement membrane extracts (Trevigen) in 8-well culture slides to prepare three-dimensional cultures as described earlier. […] Colony morphology was determined by phase-contrast microscopy. For immunostaining, cells were permeabilized with 0.5% Triton X-100/PBS and blocked with 10% normal goat serum (Invitrogen) in PBS for 1 h. Primary antibodies were incubated overnight at 4°C in blocking buffer and washed 3 times with washing buffer (0.05% Triton X-100/PBS) and once with PBS. Secondary antibodies (dilution 1:200 in 1% normal goat serum/PBS) were added for 1 h and then washed. The samples were then mounted with ProLong Gold antifade reagent with DAPI (Molecular Probes/Invitrogen, CA), following the manufacturer instructions. All incubations and washes were done at 4 or 25°C as required. Confocal microscopy was performed using a Leica SP5 confocal microscope at the Shared Instrumentation facility of department of Hematology at Mount Sinai School of Medicine, NY.

CC[C@H](C)[C@H](NC(=O)[C@H](CC(C)C)NC(=O)[C@H](CC(C)C)NC(=O)[C@H](CCC(=O)O)NC(=O)[C@H](Cc1ccccc1)NC(=O)[C@@H]1CCCN1C(=O)[C@H](CCCNC(=N)N)NC(=O)[C@H](CCCNC(=N)N)NC(=O)[C@H](CC(C)C)NC(=O)[C@H](CCC(N)=O)NC(=O)CNC(=O)CNC(=O)CNC(=O)[C@H](CCC(N)=O)NC(=O)[C@H](CCCNC(=N)N)NC(=O)[C@H](CCCNC(=N)N)NC(=O)[C@H](CCCCN)NC(=O)[C@H](CCCCN)NC(=O)[C@H](CCCNC(=N)N)NC(=O)CNC(=O)[C@@H](N)Cc1ccc(O)cc1)C(=O)N[C@@H](C)C(=O)N[C@@H](C)C(=O)N[C@@H](C)C(=O)N[C@@H](CCSC)C(=O)N[C@@H](CCC(=O)O)C(=O)N[C@@H](CCCNC(=N)N)C(=O)N[C@@H](CC(N)=O)C(=O)N1CCC[C@H]1C(=O)N[C@H](C(=O)N[C@@H](CCC(N)=O)C(=O)O)[C@@H](C)O [PF1-SID] (H-YGRKKRRQGGGQLRRPFELLIAAAMERNPTQ-OH)
IC50 (PAH2 domain of SIN3A): 15.6 µM

CC[C@H](C)[C@H](NC(=O)[C@H](CC(N)=O)NC(=O)[C@H](CCSC)NC(=O)[C@H](CCCNC(=N)N)NC(=O)[C@@H](NC(=O)CNC(=O)CNC(=O)CNC(=O)[C@H](CCC(N)=O)NC(=O)[C@H](CCCNC(=N)N)NC(=O)[C@H](CCCNC(=N)N)NC(=O)[C@H](CCCCN)NC(=O)[C@H](CCCCN)NC(=O)[C@H](CCCNC(=N)N)NC(=O)CNC(=O)[C@@H](N)Cc1ccc(O)cc1)C(C)C)C(=O)N[C@@H](CCC(N)=O)C(=O)N[C@@H](CCSC)C(=O)N[C@@H](CC(C)C)C(=O)N[C@@H](CC(C)C)C(=O)N[C@@H](CCC(=O)O)C(=O)N[C@@H](C)C(=O)N[C@@H](C)C(=O)N[C@@H](CC(=O)O)C(=O)N[C@@H](Cc1ccc(O)cc1)C(=O)N[C@@H](CC(C)C)C(=O)N[C@@H](CCC(=O)O)C(=O)N[C@@H](CCCNC(=N)N)C(=O)N[C@@H](CCCNC(=N)N)C(=O)N[C@@H](CCC(=O)O)C(=O)N[C@@H](CCCNC(=N)N)C(=O)O [Tat-SID] (H-YGRKKRRQGGGVRMNIQMLLEAADYLERRER-OH)
IC50 (PAH2 domain of SIN3A): 1.26 µM

SID peptide: SID peptide expressed from a plasmid vector over a longer time period (previous study) (YGRKKRRQGGGVRMNIQMLLEAADYLERRER)
H3K4me3 at CDH1 and ESR1 promoters [1]: dramatic increases in H3K4^me3

YGRKKRRQGGG-EQRARRIMERLLEYNMVADL [Tat-Scr]
number of lung metastasis, median (4T1 cells; 4T1 treated ex vivo with 2.5 μM, n = 5, Tat-SID p = 0.0446 versus Tat-Scr, vehicle 23): 13
decrease in lung metastasis versus vehicle (4T1 cells; Tat-Scr 2.5 μM, p = 0.2107): not statistically significant
CD44low/CD24low/neg population, mean (MDA-MB-231 cells [2]): 6.7%
ALDH+ cells, mean (MDA-MB-231 cells [3]): 21.3%
colony morphology (MDA-MB-231 cells [4]): disorganized colonies with invasive projections
